Data on 22 compounds can be found in patent US20220332700A1, “NOVEL APOPTOSIS SIGNAL-REGULATING KINASE 1 INHIBITORS” (MANKIND PHARMA LTD, priority 2019, published 2022).

Molecules are shown by their SMILES.

In assay [1] the target is T1, recombinant ASK1 (Homo sapiens, UniProt Q99683).
T1 construct: purchased Carna Biosciences
Kind of assay: ASK1 Biochemical Assay (HTRF KinEASE-STK S3). Particulars: ATP 100 μM; read-out: Biochemical Assay IC50. Summed up:
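Recombinant ASK1 (5 ng) preincubated with compound 1 h at 23 °C in MOPS pH 7 buffer with Mg-acetate, DTT, NP40, glycerol, BSA and 1% DMSO. Inhibition calculated against vehicle after substrate-blank subtraction.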
On the technique in general: TR-FRET usually uses a lanthanide donor and a delayed reading to cut background.

The target of assay [2] is T2, Human ASK1 (Homo sapiens, UniProt Q99683).
T2 construct: expressed in transfected cells; host or cells: HEK293T-AP1
T2 sequence (Q99683 1-1374): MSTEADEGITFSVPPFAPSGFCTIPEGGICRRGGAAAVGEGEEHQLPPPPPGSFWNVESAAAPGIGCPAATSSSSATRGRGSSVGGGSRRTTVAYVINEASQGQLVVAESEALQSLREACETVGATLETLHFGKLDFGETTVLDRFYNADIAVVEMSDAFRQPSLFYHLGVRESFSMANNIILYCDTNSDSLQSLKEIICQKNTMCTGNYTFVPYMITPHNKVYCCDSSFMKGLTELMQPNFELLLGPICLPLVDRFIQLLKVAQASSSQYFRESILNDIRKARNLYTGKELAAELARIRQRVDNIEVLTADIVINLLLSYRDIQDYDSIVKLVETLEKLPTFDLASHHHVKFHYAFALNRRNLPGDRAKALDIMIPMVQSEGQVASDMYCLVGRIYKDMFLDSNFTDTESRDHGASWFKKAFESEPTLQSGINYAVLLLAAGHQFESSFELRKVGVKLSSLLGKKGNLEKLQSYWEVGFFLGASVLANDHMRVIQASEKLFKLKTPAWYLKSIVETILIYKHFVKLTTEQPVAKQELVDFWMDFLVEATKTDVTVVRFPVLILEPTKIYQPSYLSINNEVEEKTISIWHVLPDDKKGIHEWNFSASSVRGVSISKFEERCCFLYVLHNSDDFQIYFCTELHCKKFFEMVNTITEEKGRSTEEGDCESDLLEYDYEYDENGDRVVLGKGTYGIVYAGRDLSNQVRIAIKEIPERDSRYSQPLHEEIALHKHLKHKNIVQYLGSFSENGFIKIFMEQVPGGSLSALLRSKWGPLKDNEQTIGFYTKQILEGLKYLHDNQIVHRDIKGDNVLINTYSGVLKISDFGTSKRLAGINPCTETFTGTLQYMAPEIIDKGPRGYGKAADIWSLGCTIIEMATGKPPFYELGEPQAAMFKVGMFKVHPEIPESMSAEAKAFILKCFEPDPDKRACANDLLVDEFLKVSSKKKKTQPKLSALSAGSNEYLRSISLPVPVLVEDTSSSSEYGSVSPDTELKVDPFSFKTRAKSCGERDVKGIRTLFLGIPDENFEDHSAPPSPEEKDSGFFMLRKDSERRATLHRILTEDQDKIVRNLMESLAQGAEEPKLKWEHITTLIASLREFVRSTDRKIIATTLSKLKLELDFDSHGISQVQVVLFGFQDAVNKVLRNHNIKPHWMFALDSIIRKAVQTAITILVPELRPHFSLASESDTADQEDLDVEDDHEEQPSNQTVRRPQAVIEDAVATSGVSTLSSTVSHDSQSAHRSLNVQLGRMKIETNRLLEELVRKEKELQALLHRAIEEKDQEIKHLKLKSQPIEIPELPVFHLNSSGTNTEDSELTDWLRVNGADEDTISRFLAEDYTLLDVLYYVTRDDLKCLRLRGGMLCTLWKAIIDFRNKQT
The assay can be described thus: ASK1 Cell Based Assay (phospho p38 read out in hASK1 transfected HEK293T-AP1 cells). Particulars: HEK293T-AP1 cells, 1 mM hydrogen peroxide, phospho p38; read-out: Cell Based Assay IC50. Put shortly: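 HEK293T-AP1 cells transfected with hASK1, after 24 h treated with compounds for 24 h (0.2% DMSO), then stimulated with 1 mM H2O2 for 1 h with compounds present.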

Take `CC(C)n1cnnc1-c1cccc(N2CCNC2=O)n1` [Example 1022, 1-(6-(4-isopropyl-4H-1,2,4-triazol-3-yl)pyridin-2-yl)imidazolidin-2-one]: the half-maximal inhibitory concentration (IC50) in assay [1] is below 100 nM; in assay [2], above 1000 nM.

Turning to `CC(C)n1cnnc1-c1cccc(N2CCN(c3ccc(N4CCC(C#N)C4)cc3)C2=O)n1` (centres unmarked) [Example 1091, 1-(4-(3-(6-(4-isopropyl-4H-1,2,4-triazol-3-yl)pyridin-2-yl)-2-oxoimidazolidin-1-yl)phenyl)pyrrolidine-3-carbonitrile], the concentration for half-maximal inhibition (IC50) in assay [1] was below 100 nM; in assay [2] it was above 1000 nM.

Consider `CNC(=O)c1ccc(N2CCN(c3cccc(-c4nncn4C(C)C)n3)C2=O)cn1` [Example 1106, 5-(3-(6-(4-isopropyl-4H-1,2,4-triazol-3-yl)pyridin-2-yl)-2-oxoimidazolidin-1-yl)-N-methylpyridine-2-carboxamide], for which the results for the concentration for half-maximal inhibition (IC50) in assay [1] and in assay [2] were below 100 nM and above 1000 nM, respectively.

As to `CC(C)n1cnnc1-c1cccc(N2CCN(c3ccc(S(C)(=O)=O)s3)C2=O)n1` [Example 1123, 1-(6-(4-isopropyl-4H-1,2,4-triazol-3-yl)pyridin-2-yl)-3-(5-(methylsulfonyl)thiophen-2-yl)imidazolidin-2-one], the 50% inhibitory concentration (IC50) in assay [1] was above 100 nM; in assay [2], above 1000 nM.

As to `CC(C)n1cnnc1-c1cccc(N2CCN(c3ccc(C(=O)NC4CC4)cc3)C2=O)n1` [Example 1048, N-cyclopropyl-4-(3-(6-(4-isopropyl-4H-1,2,4-triazol-3-yl)pyridin-2-yl)-2-oxoimidazolidin-1-yl)benzamide], the IC50 in assay [1] is below 100 nM; in assay [2] it was above 1000 nM.

For `CC(C)n1cnnc1-c1cccc(N2CCN(c3ccc(NC4CCOC4)cc3)C2=O)n1` (centres unmarked) [Example 1133, 1-(6-(4-isopropyl-4H-1,2,4-triazol-3-yl)pyridin-2-yl)-3-(4-(tetrahydrofuran-3-ylamino)phenyl)imidazolidin-2-one], the results for the IC50 in assay [1] and in assay [2] were below 100 nM and above 1000 nM, respectively.

Consider `CNC1(C2CCN(c3ccc(N4CCN(c5cccc(-c6nncn6C(C)C)n5)C4=O)cc3)CC2)COC1` [Example 1139, 1-(6-(4-isopropyl-4H-1,2,4-triazol-3-yl)pyridin-2-yl)-3-(4-(4-(3-(methylamino)oxetan-3-yl)piperidin-1-yl)phenyl)imidazolidin-2-one], for which the concentration for half-maximal inhibition (IC50) in assay [1] is below 100 nM; in assay [2], above 100 nM.

As for `CC(C)n1cnnc1-c1cccc(N2CCN(c3ccncc3)C2=O)n1` [Example 1034, 1-(6-(4-isopropyl-4H-1,2,4-triazol-3-yl)pyridin-2-yl)-3-(pyridin-4-yl)imidazolidin-2-one], the half-inhibitory concentration (IC50) in assay [1] was below 100 nM; in assay [2], above 1000 nM.

For the compound `CC(C)n1cnnc1-c1cccc(N2CCN(c3ccc(C4CCOCC4)cc3)C2=O)n1` [Example 1066, 1-(4-(tetrahydro-2H-pyran-4-yl)phenyl)-3-(6-(4-isopropyl-4H-1,2,4-triazol-3-yl)pyridin-2-yl)imidazolidin-2-one], the values for the IC50 in assay [1] and in assay [2] were below 100 nM and above 1000 nM, respectively.

Turning to `CC(C)n1cnnc1-c1cccc(N2CCN(c3ccc(C(C#N)N4CCOCC4)cc3)C2=O)n1` (centres unmarked) [Example 1098, 2-(4-(3-(6-(4-isopropyl-4H-1,2,4-triazol-3-yl)pyridin-2-yl)-2-oxoimidazolidin-1-yl)phenyl)-2-morpholinoacetonitrile], the figures for the IC50 in assay [1] and in assay [2] were below 100 nM and above 1000 nM, respectively.

As for `CC(C)n1cnnc1-c1cccc(N2CCN(c3ccc(S(C)(=O)=O)cc3)C2=O)n1` [Example 1013, 1-(6-(4-isopropyl-4H-1,2,4-triazol-3-yl)pyridin-2-yl)-3-(4-(methylsulfonyl)phenyl)imidazolidin-2-one], the IC50 was below 100 nM in assay [1] and below 1000 nM in assay [2].

Turning to `CC(C)n1cnnc1-c1cccc(N2CCN(c3cccc(-c4ccc(S(C)(=O)=O)cc4)c3)C2=O)n1` [Example 1007, 1-(6-(4-isopropyl-4H-1,2,4-triazol-3-yl)pyridin-2-yl)-3-(4′-(methylsulfonyl)-[1,1′-biphenyl]-3-yl)imidazolidin-2-one], the values for the IC50 in assay [1] and in assay [2] were 30 nM and above 1000 nM, respectively.

`CC(C)n1cnnc1-c1cccc(N2CCN(c3ccc(-n4ccnc4)cc3)C2=O)n1` [Example 1036, 1-(4-(1H-imidazol-1-yl)phenyl)-3-(6-(4-isopropyl-4H-1,2,4-triazol-3-yl)pyridin-2-yl)imidazolidin-2-one]: the values for the half-maximal inhibitory concentration (IC50) in assay [1] and in assay [2] were below 100 nM and below 1000 nM, respectively.

As for `CC(C)n1cnnc1-c1cccc(N2CCN(c3ccc(C(O)C4CC4)cc3)C2=O)n1` (centres unmarked) [Example 1051, 1-(4-(cyclopropyl(hydroxy)methyl)phenyl)-3-(6-(4-isopropyl-4H-1,2,4-triazol-3-yl)pyridin-2-yl)imidazolidin-2-one], the IC50 in assay [1] is below 100 nM; in assay [2], below 1000 nM.

On to `CC(C)n1cnnc1-c1cccc(N2CCN(c3ccc(C(=O)C4CC4)cc3)C2=O)n1` [Example 1037, 1-(4-(cyclopropanecarbonyl)phenyl)-3-(6-(4-isopropyl-4H-1,2,4-triazol-3-yl)pyridin-2-yl)imidazolidin-2-one], for which the 50% inhibitory concentration (IC50) in assay [1] was below 100 nM; in assay [2], below 1000 nM.

As for `CC(C)n1cnnc1-c1cccc(N2CCN(c3ccc(N(C)C)cc3)C2=O)n1` [Example 1041, 1-(4-(dimethylamino)phenyl)-3-(6-(4-isopropyl-4H-1,2,4-triazol-3-yl)pyridin-2-yl)imidazolidin-2-one], the half-inhibitory concentration (IC50) was below 100 nM in assay [1] and above 1000 nM in assay [2].

`CC1CN(c2ccc(N3CCN(c4cccc(-c5nncn5C(C)C)n4)C3=O)cc2)C(=O)CO1` (centres unmarked) [Example 1076, 4-(4-(3-(6-(4-isopropyl-4H-1,2,4-triazol-3-yl)pyridin-2-yl)-2-oxoimidazolidin-1-yl)phenyl)-6-methylmorpholin-3-one]: the IC50 is below 100 nM in assay [1] and above 1000 nM in assay [2].

Consider `CC(C)NC(=O)c1ccc(N2CCN(c3cccc(-c4nncn4C(C)C)n3)C2=O)cn1` [Example 1110, N-isopropyl-5-(3-(6-(4-isopropyl-4H-1,2,4-triazol-3-yl)pyridin-2-yl)-2-oxoimidazolidin-1-yl)pyridine-2-carboxamide], for which the results for the IC50 in assay [1] and in assay [2] were below 100 nM and above 1000 nM, respectively.

For `CC(C)n1cnnc1-c1cccc(N2CCN(c3ccc(N4CCN(C(=O)CC#N)CC4)cc3)C2=O)n1` [Example 1137, 3-(4-(4-(3-(6-(4-isopropyl-4H-1,2,4-triazol-3-yl)pyridin-2-yl)-2-oxoimidazolidin-1-yl)phenyl)piperazin-1-yl)-3-oxopropanenitrile], the results for the IC50 in assay [1] and in assay [2] were below 100 nM and above 100 nM, respectively.

As for `CC(C)n1cnnc1-c1cccc(N2CCN(c3ccc(C(=O)N4CCOCC4)cc3)C2=O)n1` [Example 1077, 1-(6-(4-isopropyl-4H-1,2,4-triazol-3-yl)pyridin-2-yl)-3-(4-(morpholine-4-carbonyl)phenyl)imidazolidin-2-one], the half-inhibitory concentration (IC50) in assay [1] was below 100 nM; in assay [2] it was above 100 nM.

With `CC(C)n1cnnc1-c1cccc(N2CCN(c3ccc4c(ccn4C)c3)C2=O)n1` [Example 1125, 1-(6-(4-isopropyl-4H-1,2,4-triazol-3-yl)pyridin-2-yl)-3-(1-methyl-1H-indol-5-yl)imidazolidin-2-one], the IC50 in assay [1] is below 100 nM; in assay [2], above 1000 nM.

For the compound `CC(C)n1cnnc1-c1cccc(N2CCN(c3ccc(S(=O)(=O)N4CCOCC4)cc3)C2=O)n1` [Example 1073, 1-(6-(4-isopropyl-4H-1,2,4-triazol-3-yl)pyridin-2-yl)-3-(4-(morpholinosulfonyl)phenyl)imidazolidin-2-one], the IC50 in assay [1] is below 100 nM; in assay [2], above 100 nM.

The IC50 is the concentration that inhibits the measured activity by half.
